Reference: US20150004110A1, “NOVEL ANTI-AGING AND DEPIGMENTING COSMETIC COMPOSITIONS” (DIVERCHIM, priority 2011, published 2015)
Where two headings read alike, the source gives them in different places.

How the values were obtained:
[1] = tested on: B16 melanocytes stimulated with NDP-MSH; assay: Anti-melanogenesis activity: melanin synthesis in B16 melanocytes stimulated with NDP-MSH; type: cell-based
Experimental: The depigmenting effect was evaluated on a line of type B16 melanocytes stimulated with NDP-MSH, (natural hormone stimulating melanogenesis; Melanocyte Stimulating Hormone, [Nle, DPhe]-α-MSH). Melanin synthesis was evaluated.
The anti-melanogenesis activity of the compounds in solution in DMSO was evaluated by measuring melanin synthesis in a model of B16 melanocytes stimulated with a stable derivative of α-MSH (natural melanogenesis stimulating hormone): NDP-MSH.
The melanocytes were seeded in a 96-well plate and were cultured for 24 h (37° C., 5% CO2, DMEM 1 g/L glucose without phenol red supplemented with glucose at 3 g/L, L-glutamine at 2 mM, penicillin at 50 U/mL, streptomycin at 50 μg/mL, foetal calf serum (FCS) at 10%). After incubation, the culture medium was then replaced with culture medium supplemented or not supplemented (unstimulated control) with a stable derivative of α-MSH and containing or not containing (controls) the test compounds or the reference (kojic acid at 25, 100, 400, 800 μg/mL). Each experiment was carried out with n=3, apart from the controls carried out with n=6, then the cells were incubated for 72 h. Wells without cells received in parallel the same quantities of medium supplemented or not supplemented with NDP-MSH and containing or not containing the test compounds or the reference in order to quantify the background noise associated with the presence of the compounds.
After incubation for 72 hours, the total melanin (intra- and extracellular) was quantified by measuring the absorption at 405 nm of each sample (direct reading of the culture plates) against a standard range of melanin (melanin concentrations tested from 0.78 to 100 μg/mL). The background noise, measured in the wells without cells, was subtracted from the measured values so as only to take into account the effect connected with melanin production, without taking into account the possible interference connected with the presence of the compounds. The results were expressed as percentage of melanin relative to the control as well as percentage inhibition.
The operating conditions are the same as in Example 12.

[2] = tested on: matrix metallopeptidase gene MMP9; assay: RT-qPCR expression of MMP9 in keratinocytes; type: cell-based, human; conditions: 10 μM
Experimental: The expression of the specific markers was evaluated by RT-qPCR (reverse transcription quantitative polymerase chain reaction) on messenger RNAs extracted from the cell lawns from each treatment. The transcriptomic profile contains 64 genes selected for their importance in keratinocyte differentiation. The PCR reactions (polymerase chain reactions) were carried out by quantitative PCR with the “Light Cycler” system (Roche Molecular System Inc.) according to the procedures recommended by the supplier. Normal human epidermal keratinocytes were incubated in the presence of compound 1 or a reference with calcium chloride. The expression of the specific markers was evaluated by RT-qPCR on the messenger RNAs extracted from the cell lawns from each treatment.

Transglutaminase K, TGK = assay: In situ immunolabelling of TGK in keratinocytes; type: cell-based; conditions: normal human epidermal keratinocytes
Excerpt: Transglutaminase K, TGK, and filaggrin are two protein markers of epidermal differentiation involved in arrangement of the keratin filaments and formation of the envelope of the stratum corneum.

prostaglandin E2 (PGE2) = assay: Release of PGE2 by NCTC-2544 keratinocytes stimulated by PMA; type: cell-based, human; conditions: NCTC-2544 stimulated by PMA
Experimental: (§1) The effects of compound 1 were evaluated on two routes of inflammation, the “chemokine” route and the “prostaglandin” route, by measuring the release of interleukin-8 (IL-8) and of prostaglandin E2 (PGE2) by a human keratinocyte line NCTC-2544 stimulated by phorbol-myristate acetate (PMA).

interleukin-8 (IL-8) = assay: Release of IL-8 by NCTC-2544 keratinocytes stimulated by PMA; type: cell-based, human; conditions: NCTC-2544 stimulated by PMA
Experimental: as §1

[3] = tested on: normal human dermal fibroblasts; assay: Neosynthesis of sulphated GAGs ([35S]-sulphate incorporation) in dermal fibroblasts; type: cell-based; conditions: monolayer of normal human dermal fibroblasts
Experimental: The effects of this compound were evaluated on a monolayer of normal human dermal fibroblasts by measuring the neosynthesis of glycosaminoglycans designated as sulphated GAGs (incorporation of [^35S]-sulphate). […] This might explain the effect of dermal reinforcement already observed on skin explants ex vivo.

PPARγ (h) = biological target: T1, PPARγ (h) (Homo sapiens, UniProt P37231); assay: PPARγ antagonist effect, coactivator Alpha screen; type: biochemical
T1 construct: Cerep (contract laboratory that ran the assay)
T1 sequence (P37231 1-505): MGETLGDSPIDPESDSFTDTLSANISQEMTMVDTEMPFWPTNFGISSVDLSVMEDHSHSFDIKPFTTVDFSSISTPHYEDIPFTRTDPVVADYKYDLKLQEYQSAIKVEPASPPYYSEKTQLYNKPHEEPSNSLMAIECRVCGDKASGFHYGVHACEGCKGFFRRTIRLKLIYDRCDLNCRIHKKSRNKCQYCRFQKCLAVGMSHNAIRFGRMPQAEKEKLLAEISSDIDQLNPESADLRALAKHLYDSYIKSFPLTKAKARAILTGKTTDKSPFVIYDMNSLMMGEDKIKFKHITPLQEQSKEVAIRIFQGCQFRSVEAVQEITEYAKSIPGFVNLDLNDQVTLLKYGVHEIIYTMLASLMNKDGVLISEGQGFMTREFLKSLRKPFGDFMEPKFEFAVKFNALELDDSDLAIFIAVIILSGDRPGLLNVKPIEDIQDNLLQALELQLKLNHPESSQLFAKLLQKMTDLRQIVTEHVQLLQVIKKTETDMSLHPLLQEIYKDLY
Experimental: The agonist or antagonist activity of compound 1 on the PPAR receptors was tested by fluorescence techniques. • Material and Methods
The results are expressed as: • percentage of control specific agonist response (measured specific response/control specific agonist response)×100) and • percentage inhibition of the control specific agonist response (100−((measured specific response)/control specific agonist response)×100)) obtained in the presence of compound 1.
The EC50 values (concentration at which the maximum specific response is 50%) and the IC50 values (concentration at which the maximum control specific agonist response is inhibited by 50%) are determined by non-linear regression analysis of the concentration-response curves with a mean replicated value using adjustment of Hill's equation
For the antagonists, the apparent dissociation constants (KB) were calculated using the modified Cheng-Prusoff equation

[4] = Melanocyte, NDP-MSH stimulated B16, 72 h, Table 2, read-out: Standardized data Inhibition (%) (melanin)
[5] = Melanocyte, comparison with 2 reference molecules, Table 3, read-out: Standardized data Inhibition (%) (melanin)

- Expression of the MMP9 gene [2]: inhibition of expression
- inhibition at 10 µM (PPARγ (h); 10^−5 M, read-out: % Inhibition of control agonist response): 0%
- inhibition at 1 µM (PPARγ (h); 10^−6 M, read-out: % Inhibition of control agonist response): 0%
- inhibition at 0.1 µM (PPARγ (h); 10^−7 M, read-out: % Inhibition of control agonist response): 3%
- PPARγ antagonist activity (conclusion in words) (PPARγ (h); 10^−7 to 10^−5 M): not an antagonist
SMILES: Oc1ccccc1CCOc1ccc(F)cc1 [Compound 1, 2-[2-(4-fluoro-phenoxy)-ethyl]-phenol]
- Depigmenting effect (inhibition of melanin synthesis), in words ([1]; 30 μM and 100 μM): clear inhibitory effect
- Depigmenting effectiveness compared with the two reference products ([1]; 30 μM and 100 μM, versus rucinol and [869743-37-3]): slightly more effective than the two reference products used
- inhibition at 10 µM ([1]; Melanocyte, 10 μM, NDP-MSH stimulated B16, 72 h, Table 2, read-out: Standardized data Inhibition (%) (melanin)): 0%
- inhibition at 30 µM [1, 4]: 93%
- inhibition at 30 µM [1, 5]: 98%
- inhibition at 100 µM [1, 4]: 112%
- inhibition at 100 µM [1, 5]: 124%
- Protein expression of TGK (Transglutaminase K, TGK): concentration-dependent stimulation of protein expression
- Release of PGE2 (prostaglandin E2 (PGE2)): concentration-dependent inhibition
- Release of IL-8 (interleukin-8 (IL-8)): without altering
- Neosynthesis of sulphated GAGs [3]: stimulated the neosynthesis of sulphated GAGs, in a non-concentration-dependent fashion
